Experimental data: patent US20220259254A1, “TRANS-CYCLOOCTENE BIOORTHOGONAL AGENTS AND USES IN CANCER AND IMMUNOTHERAPY” (Tambo, Inc., priority 2019, published 2022)
Entries after “also recorded” stand apart in the source; their conditions may differ.

Columns and labels:
MC38 tumor [1] = experiment: MC38 dual tumor model (injected and non-injected tumor), tumor growth inhibition and survival;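 as to all read-outs here: male C57BL/6 mice carrying two subcutaneous MC38 flank tumors, with treatment given peritumorally beside the larger tumor only and both tumors sized by caliper three times per week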; conditions: for response of non-injected tumors: non-injected tumor (FIG. 6C); for antitumor activity on non-injected tumor compared with G4: P<0.001; for 1-T/C (%) / T/C (%): vs G4 saline; for TV, tumor volume at Day 7: Day 7 = treatment start, all groups peritumoral BIOMATERIAL 1; for survival, statistical difference from Saline: log-rank (Mantel-Cox) test; for tumor growth curves, statistical difference from Saline: unpaired t test with Welch's correction for each day, groups 4, 5, 8
Procedure: For groups 4-10 (dual tumor model), Immunocompetent male C57BL/6 mice were inoculated SC in the right flank with 5×10^5 MC38 tumor cells (large injected tumor) and in the left flank with 1×10^5 MC38 tumor cells (small non-injected tumor).
Prior to injection, the MC38 cells were suspended in 0.1 mL DMEM media mixed with 50% Matrigel for tumor development. When the average tumor volume of the large tumor reached approximately 100 mm^3, animals were randomly grouped according to body weight and tumor volume into 10 treatment groups with 5-10 mice per group. All groups received peritumoral biomaterial injections (100 μL/mouse) near the large tumor (hereafter, the injected tumor). One hour later, groups 1, 4 and 10 were IV administered saline control (QD×5 days); groups 2, 8 and 9 were IV administered PRODRUG 1 prodrug (28.6 mg/kg Dox Eq QD×5 days; cumulative dose of 143 mg/kg Dox Eq) and group 5 was IV administered Dox HCl control (MTD; 8.1 mg/kg Q4D×3 doses; cumulative dose of 24.3 mg/kg). Tumor volumes for both tumors were measured three times weekly in two dimensions using a caliper, and the volume expressed in mm^3. 8 groups were used to assess the tumor growth inhibition, while groups 9 and 10 (PRODRUG 1, saline n=10/group) were used to determine the immune cell infiltration using flow cytometry. Groups 3, 6 and 7 (n=10) were used to test Dox+ TLR9 agonist (SL-01) and PRODRUG 1+ TLR9 agonist. The TLR9 agonist was given as an intratumoral injection in the primary tumors alone after the last PRODRUG 1 or Dox dose at 25 μg per mouse.
Eighty-five animals were enrolled into the efficacy study. When tumor volume reached an average volume of approximately 100 mm^3, animals were randomized as below using block randomization by Excel based upon their tumor size. […] 5×10^5 MC-38 cells suspended in 100 μL PBS mixed with 50% matrix gel were inoculated subcutaneously into the right flank. For Groups 4 through 10, 1×10^5MC-38 cells suspended in 100 μL PBS mixed with 50% matrix gel were inoculated subcutaneously into the left flank.
Tumor volume was measured thrice weekly in two dimensions using a caliper, and the volume was expressed in mm^3 using the formula: V=0.5 a×b^2, where a and b are the long and short diameters of the tumor, respectively. The tumor volume was then used for calculations of both T-C and T/C values. T-C was calculated with T as the median time (in days) required for the treatment group tumors to reach a predetermined size, and C as the median time (in days) for the control group tumors to reach the same size.

MC38 tumor cells = experiment: MC38 tumor re-challenge study; assay type: in vivo, C57BL/6 mice; conditions: 5×10^5 MC38 cells SC at left flank on Day 70; versus naïve mice; listed as BIOMATERIAL 1/PRODRUG 1
Procedure: Aside from the dual-tumor groups, this study also investigated a tumor re-implantation in mice inoculated with only one MC38 tumor. On Day 38, all animals in group G2 (Table 1)(n=8) were treated with a second cycle of BIOMATERIAL 1/PRODRUG 1-100-μL intratumoral BIOMATERIAL 1 injection followed by 5 daily doses (1 dose per day) of PRODRUG 1—this time at 11.9 mg/kg/dose Dox Eq (59.3 mg/kg/cycle Dox Eq).
In addition, mice from group G3 (Table 1) (n=5), and mice from dual tumor groups G6, G7, and G8 (n=10) were rechallenged.

MC38 tumor [2] = experiment: MC38 subcutaneous syngeneic single tumor model, tumor growth inhibition; assay type: in vivo, C57BL/6 mice
[3] = tested on: tumor-infiltrating lymphocytes (TILs); experiment: flow cytometry of tumor-infiltrating immune cells in dual MC38 tumors; assay type: in vivo, C57BL/6 mice; conditions: for % CD45+CD3+ cells versus saline: 2 weeks after treatment completion
Procedure: In the same study, 2 groups (n=10) of mice with dual MC38 tumors were used for tumor immune cell profiling and were treated with either BIOMATERIAL 1/PRODRUG 1 TREATMENT or saline. Each group was further divided into 2 subgroups of 5 mice each. Tumor collection was performed on the first and second subgroups at 1 and 2 weeks, respectively. […] The cell percentage of each population of interest was identified (Table 6).
For tumor samples, tumor tissues were homogenized using the Miltenyi Tumor Dissociation kit. Single cell suspension from tumor samples were RBC lysed, centrifuged to pellet cells, washed with cold PBS and resuspend cell pellets in the staining buffer and store on ice. Cells were then ready for FACS antibody staining.
1. For each sample, added cells (<10×10^6 cells/tube) in the staining buffer, into an Eppendorf tube labeled with correct sample name. • Panel 1: Live-dead/CD45/CD3/CD4/CD8/CD25/PD-1 • Panel 2: Live-dead/CD45/CD3/CD4/CD25/Foxp3
2. For each tissue type (tumor), prepared two extra tubes (see below) and added cells (<10×10^6 cells/tube) in the staining buffer into these two tubes. • Tube: no-color • Tube: live-dead only*** • Tube: no-color (fix/perm) • Tube: live-dead only (fix/perm) • Note: These two tubes served as gating control for each tissue type. • *** The live-dead only tube was also used for live-dead compensation. Compensation for 8 fluorochrome-conjugated antibodies was prepared separately, using compensation beads from BD and following vendor's manual.
3. Prepared FcR blocking solution (100 μL per tube×tube numbers) by diluting FcR blocking antibody at 1/100 in staining buffer • Note: Since two Brilliant Violet dyes were used in the FACS panel, BD Horizon Brilliant Stain Buffer were added at 5 μL per 100 μL FcR blocking solution
4. Resuspended cell pellets in 100 μL FcR blocking solution and incubated at RT in dark for 3 min
5. For panel 1, added FACS antibodies to desired concentrations (2 μg/ml for each antibody). Incubated at 4° C. in dark for 30 min. For panel 2, added FACS antibodies (except foxp3) to desired concentrations (2 μg/ml for each antibody), incubated at 4° C. in dark for 30 min, then fixated/permeabilized the cells at 4° C. for 40-50 min, and added foxp3 antibody to desired concentrations (2 μg/ml) at 4° C. in dark for 40 min.
6. Added 1 ml staining buffer, centrifuged at 350 g for 4 min at 4° C. to wash and pellet cells
7. Resuspended cells in “Tube: no color” with 500 μL staining buffer (no live-dead added)
8. Resuspended cells in all other tubes with 500 μL staining buffer with 1 μg/ml live-dead
9. Cells were ready for FACS analysis and were subjected to analysis by the Attune Nxt Flow Cytomter (ThermoFisher)
For Group 9 and Group 10, 5 and 5 mice were sacrificed at 1 and 2 weeks respectively after dosing completion. Tumors were collected for FACS.

bacteria = experiment: activity against bacteria measured by microcalorimetry; assay type: cell-based; conditions: tested up to 64 μg/ml (32 μM)
Excerpt: Example A7C can be synthesized using a protocol analogous to Example A7B.

[4] = dual tumor mice, injected tumor
[5] = dual tumor mice, non-injected tumor
[6] = injected tumor, dual tumor mice, D21
[7] = injected tumor, dual tumor mice
[8] = non-injected tumor, dual tumor mice, D24
[9] = non-injected tumor, dual tumor mice
[10] = injected tumor, single tumor mice, D21, vs G1 saline

COc1cccc2c1C(=O)c1c(O)c3c(c(O)c1C2=O)C[C@@](O)(C(=O)CO)C[C@@H]3O[C@H]1C[C@H](N)[C@H](O)[C@H](C)O1 [Dox, doxorubicin, reference compound]
antitumor activity on injected tumor compared with control group G4 (MC38 tumor [1]; [4]): significant antitumor activity | response of non-injected tumors (MC38 tumor [1]; dual tumor mice): progressive growth | antitumor activity on non-injected tumor compared with G4 (MC38 tumor [1]; [5]): significant antitumor activity | 1-T/C (%) (MC38 tumor [1]; [6]): 34% | T/C (%) (MC38 tumor [1]; [6]): 66% | TV, tumor volume at Day 7 (MC38 tumor [1]; [7]): 93 ± 8.5 mm^3 | TV, tumor volume at Day 21 (MC38 tumor [1]; [7]): 810 ± 196.4 mm^3 | survival, statistical difference from Saline (MC38 tumor [1]; dual tumor mice): not significantly different | 1-T/C (%) (MC38 tumor [1]; [8]): 66% | T/C (%) (MC38 tumor [1]; [8]): 34% | TV, tumor volume at Day 12 (MC38 tumor [1]; [9]): 67 ± 18.8 mm^3 | TV, tumor volume at Day 24 (MC38 tumor [1]; [9]): 93 ± 19.2 mm^3 | tumor growth curves, statistical difference from Saline (MC38 tumor [1]): not significantly different

COc1cccc2c1C(=O)c1c(O)c3c(c(O)c1C2=O)C[C@@](O)(C(=O)CO)C[C@@H]3O[C@H]1CC(NC(=O)O[C@@H]2/C=C/CC[C@](C)(C(=O)NCC(=O)O)CC2)[C@H](O)C(C)O1 (stereo partly shown) [PRODRUG 1]
tumor growth after re-challenge with MC38 cells (MC38 tumor cells): suppressed; also recorded: sustained anti-tumor response | antitumor activity on injected tumor compared with control group G4 (MC38 tumor [1]; [4]): significant antitumor activity | antitumor response / tumor growth inhibition compared with conventional Dox treatment (MC38 tumor [1]; dual tumor mice, injected tumor, p<0.05, listed as BIOMATERIAL 1/PRODRUG 1): significantly improved antitumor response; also recorded: improved tumor growth inhibition | response of non-injected tumors (MC38 tumor [1]; dual tumor mice): sustained anti-tumor responses | antitumor activity on non-injected tumor compared with G4 (MC38 tumor [1]; [5]): significant antitumor activity | overall survival compared with conventional Dox treatment (MC38 tumor [1]; dual tumor mice, p<0.001, listed as BIOMATERIAL 1/PRODRUG 1): significantly improved | 1-T/C (%) (MC38 tumor [1]; [6]): 75% | T/C (%) (MC38 tumor [1]; [6]): 25% | TV, tumor volume at Day 7 (MC38 tumor [1]; [7]): 93 ± 5.6 mm^3 | TV, tumor volume at Day 21 (MC38 tumor [1]; [7]): 322 ± 45.9 mm^3 | survival, statistical difference from Saline (MC38 tumor [1]; dual tumor mice): significantly different | 1-T/C (%) (MC38 tumor [1]; [8]): 70% | T/C (%) (MC38 tumor [1]; [8]): 30% | TV, tumor volume at Day 12 (MC38 tumor [1]; [9]): 42 ± 3.8 mm^3 | TV, tumor volume at Day 24 (MC38 tumor [1]; [9]): 53 ± 5.2 mm^3 | tumor growth curves, statistical difference from Saline (MC38 tumor [1]): significantly different | complete remission (MC38 tumor [2]; MC38 model): 10 % of mice treated | 1-T/C (%) (MC38 tumor [2]; [10]): 62% | T/C (%) (MC38 tumor [2]; [10]): 38% | TV, tumor volume at Day 7 (MC38 tumor [2]; injected tumor, single tumor mice, Day 7 = treatment start, all groups peritumoral BIOMATERIAL 1): 94 ± 6.3 mm^3 | TV, tumor volume at Day 21 (MC38 tumor [2]; injected tumor, single tumor mice, Day 21, all groups peritumoral BIOMATERIAL 1): 393 ± 100.5 mm^3 | antitumor activity compared with control group G1 (MC38 tumor [2]; single tumor mice, P<0.001): significant antitumor activity | immune cell profile versus saline group ([3]; 1 week after completion of treatment): no differences | total number of TILs ([3]; injected and non-injected tumors, at 2 weeks, not after 1 week, listed as BIOMATERIAL 1/PRODRUG 1): increased the total number of TILs | PD-1 expression in CD8+ cells versus saline ([3]; injected or non-injected tumors): no difference | percentage of CD4+ cells versus saline ([3]; injected tumor, 2 weeks): significantly higher | percentage of CD8+ cells versus saline ([3]; injected tumor, 2 weeks): significantly higher | percentage of PD-1+CD4+ T cells versus saline ([3]; injected tumors, 2 weeks): higher percentage | % CD45+CD3+ cells versus saline ([3]; injected tumors): increased | percentage of FoxP3+ cells versus saline ([3]; injected tumors, 2 weeks, no statistical significance): lower | CD4+ cell percentage versus saline ([3]; non-injected tumor, 2 weeks): significantly higher | CD4+CD25+ FoxP3+ cells (Tregs) ([3]; non-injected tumors, 2 weeks): no CD4+CD25+ FoxP3+ cells observed | difference in PD-1+CD4+ T cells versus saline ([3]; non-injected tumors, 2 weeks): not observed | % CD45+CD3+ cells versus saline ([3]; non-injected tumors): increased | cell percentage of CD8+ cells versus saline ([3]; non-injected tumors, 2 weeks, no statistical significance): appeared higher

CC(C)CC(C(=O)N[C@H]1C(=O)N[C@@H](CC(N)=O)C(=O)N[C@H]2C(=O)N[C@H]3C(=O)N[C@H](C(=O)N[C@H](C(=O)O)c4cc(O)cc(O)c4-c4cc3ccc4O)[C@H](O)c3ccc(c(Cl)c3)Oc3cc2cc(c3O[C@@H]2O[C@H](CO)[C@@H](O)[C@H](O)[C@H]2O[C@H]2C[C@](C)(NC(=O)O[C@@H]3/C=C/CC[C@](C)(C(=O)NCC(=O)O)CC3)[C@H](O)[C@H](C)O2)Oc2ccc(cc2Cl)[C@H]1O)N(C)C(=O)O[C@@H]1/C=C/CC[C@](C)(C(=O)NCC(=O)O)CC1 (stereo partly shown) [Vanco-Bis-TCO-Glycine]
activity against bacteria (bacteria): no activity
